The values below come from US12492181B2, “Gem-disubstituted piperidine melanocortin subtype-2 receptor (MC2R) antagonists and uses thereof” (Crinetics Pharmaceuticals, Inc., priority 2019, dated 2025).

Molecules are shown by their SMILES.

For this assay, the target named is T1, hMC2 receptor (crude hMC2R membranes from CRE-bla-CHO-K1 cells stably expressing hMC2 receptor and hMRAP accessory protein) (Homo sapiens, UniProt Q01718).
T1 construct: crude membrane fractions
T1 sequence (Q01718 whole entry): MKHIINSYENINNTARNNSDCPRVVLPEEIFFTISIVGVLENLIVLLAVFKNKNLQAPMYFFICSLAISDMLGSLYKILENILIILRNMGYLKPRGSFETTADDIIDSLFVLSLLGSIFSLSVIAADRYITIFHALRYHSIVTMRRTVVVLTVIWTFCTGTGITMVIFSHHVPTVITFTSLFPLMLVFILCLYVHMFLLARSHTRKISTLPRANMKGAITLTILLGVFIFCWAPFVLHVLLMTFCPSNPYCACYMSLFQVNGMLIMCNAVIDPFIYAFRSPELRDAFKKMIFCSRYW
T1 sequence (Q8TCY5 whole entry partner): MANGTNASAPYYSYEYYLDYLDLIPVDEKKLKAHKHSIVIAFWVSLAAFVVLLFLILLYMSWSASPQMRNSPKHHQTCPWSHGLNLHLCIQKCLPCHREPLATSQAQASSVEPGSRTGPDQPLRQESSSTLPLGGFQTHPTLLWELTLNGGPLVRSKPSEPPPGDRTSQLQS
In words: hMC2 membrane binding assay ([125I]ACTH (1-39) Tyr23, SPA). Particulars: displacement of 0.2 nM [125I]ACTH (1-39) Tyr23 from hMC2R membranes, 1.5 hours at room temperature; read-out: MC2R binding potency. A digest of the protocol:
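Crude membranes from CRE-bla-CHO-K1 cells stably co-expressing hMC2R and hMRAP, premixed with WGA PVT SPA beads in pH 7.4 HEPES buffer (5 mM MgCl2, 1 mM CaCl2, 0.20% BSA, protease inhibitors). Compounds compete with [125I]ACTH(1-39) Tyr23, read by scintillation. Ki from non-linear regression.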
Take `CCOc1ccccc1-c1ccc(C2(NC(=O)[C@@H]3CCN(C)C3)CCN(c3ccc(C(F)(F)F)cc3C#N)CC2)cn1` [Compound 2-33, (3R)—N-{1-[2-cyano-4-(trifluoromethyl)phenyl]-4-[6-(2-ethoxyphenyl)pyridin-3-yl]piperidin-4-yl}-1-methylpyrrolidine-3-carboxamide]: the Ki was less than 10 nM. To `COc1ccccc1-c1ccc(C2(NC(=O)NC3CN(C)C3)CCN(c3ccc(C(F)(F)F)cc3C#N)CC2)cn1` [Compound 2-59, 1-{1-[2-cyano-4-(trifluoromethyl)phenyl]-4-[6-(2-methoxyphenyl)pyridin-3-yl]piperidin-4-yl}-3-(1-methylazetidin-3-yl)urea] belongs 10 to 100 nM; to `CCOc1ncccc1-c1ccc(C2(NC(=O)CCN(C)C)CCN(c3ccc(C(F)(F)F)cc3C#N)CC2)cn1` [Compound 2-10, N-{1-[2-cyano-4-(trifluoromethyl)phenyl]-4-{2′-ethoxy-[2,3′-bipyridin]-5-yl}piperidin-4-yl}-3-(dimethylamino)propanamide], less than 10 nM.

Regarding `CNCCNC(=O)C1(c2ccc(-c3ccccc3OC)nc2)CCN(c2ccc(C(F)(F)F)cc2Cl)CC1` [Compound 1-257, 1-[2-chloro-4-(trifluoromethyl)phenyl]-4-[6-(2-methoxyphenyl)pyridin-3-yl]-N-[2-(methylamino)ethyl]piperidine-4-carboxamide], the Ki was less than 10 nM. For `COc1ncccc1-c1ccc(C2(C(=O)N[C@@H](C)CN(C)C)CCN(c3ccc(C(F)(F)F)cc3Cl)CC2)cn1` [Compound 1-296, 1-[2-chloro-4-(trifluoromethyl)phenyl]-N-[(2S)-1-(dimethylamino)propan-2-yl]-4-{2′-methoxy-[2,3′-bipyridin]-5-yl}piperidine-4-carboxamide], the Ki was less than 10 nM. Then `CNCCNC(=O)C1(c2ccc(-c3ccccc3OC)nc2)CCN(c2ccc(C(F)(F)F)cc2C#N)CC1` [Compound 1-214, 1-[2-cyano-4-(trifluoromethyl)phenyl]-4-[6-(2-methoxyphenyl)pyridin-3-yl]-N-[2-(methylamino)ethyl]piperidine-4-carboxamide], with less than 10 nM; and `CCOc1ccccc1-c1ccc(C2(NC(=O)CCN(C)C)CCN(c3ccc(C(F)(F)F)cc3C#N)CC2)cn1` [Compound 2-36, N-{1-[2-cyano-4-(trifluoromethyl)phenyl]-4-[6-(2-ethoxyphenyl)pyridin-3-yl]piperidin-4-yl}-3-(dimethylamino)propanamide], with less than 10 nM. With `COc1ncccc1-c1ccc(C2(C(=O)NCCN(C)C)CCN(c3ccc(C(F)(F)F)cc3F)CC2)cn1` [Compound 1-271, N-[2-(dimethylamino)ethyl]-1-[2-fluoro-4-(trifluoromethyl)phenyl]-4-{2′-methoxy-[2,3′-bipyridin]-5-yl}piperidine-4-carboxamide], the Ki was less than 10 nM. As for `CCOc1ncccc1-c1ccc(C2(NC(=O)[C@@H]3CCN(C)C3)CCN(c3ccc(C(F)(F)F)cc3C#N)CC2)cn1` [Compound 2-7, (3R)—N-{1-[2-cyano-4-(trifluoromethyl)phenyl]-4-{2′-ethoxy-[2,3′-bipyridin]-5-yl}piperidin-4-yl}-1-methylpyrrolidine-3-carboxamidev], the Ki was less than 10 nM.

Regarding `CCOc1ncccc1-c1ncc(C2(C(=O)NC[C@H](CO)N(C)C)CCN(c3ccc(C(F)(F)F)cc3C#N)CC2)cc1F` [Compound 1-334, 1-[2-cyano-4-(trifluoromethyl)phenyl]-N-[(2R)-2-(dimethylamino)-3-hydroxypropyl]-4-{2′-ethoxy-3-fluoro-[2,3′-bipyridin]-5-yl}piperidine-4-carboxamide], the Ki was less than 10 nM. As to `COc1ccccc1-c1ccc(C2(C(=O)N[C@@H]3CNC[C@@H]3F)CCN(c3ccc(C(F)(F)F)cc3C#N)CC2)cn1` [Compound 1-237, 1-[2-cyano-4-(trifluoromethyl)phenyl]-N-[(3R,4S)-4-fluoropyrrolidin-3-yl]-4-[6-(2-methoxyphenyl)pyridin-3-yl]piperidine-4-carboxamide], the Ki was less than 10 nM. In the case of `CCc1ccccc1-c1ccc(C2(C(=O)N[C@H]3CCN(C)C3)CCN(c3ccc(C(F)(F)F)cc3C#N)CC2)cn1` [Compound 1-104, 1-[2-cyano-4-(trifluoromethyl)phenyl]-4-[6-(2-ethylphenyl)pyridin-3-yl]-N-[(3S)-1-methylpyrrolidin-3-yl]piperidine-4-carboxamide], the Ki was less than 10 nM. As to `CN(C)CCNC(=O)C1(c2ccc(-c3cccn3C)nc2)CCN(c2ccc(C(F)(F)F)cc2F)CC1` [Compound 1-276, N-[2-(dimethylamino)ethyl]-1-[2-fluoro-4-(trifluoromethyl)phenyl]-4-[6-(1-methyl-1H-pyrrol-2-yl)pyridin-3-yl]piperidine-4-carboxamide], the Ki was less than 10 nM. Then `CO[C@@H]1CN(C)C[C@H]1NC(=O)C1(c2ccc(-c3cccn3C)nc2)CCN(c2ccc(C(F)(F)F)cc2C#N)CC1` (racemic) [Compound 1-268, rac-1-[2-cyano-4-(trifluoromethyl)phenyl]-N-[(3R,4R)-4-methoxy-1-methylpyrrolidin-3-yl]-4-[6-(1-methyl-1H-pyrrol-2-yl)pyridin-3-yl]piperidine-4-carboxamide], with less than 10 nM. Regarding `CN(C)CCNC(=O)C1(c2ccc(-c3cccn3C)nc2)CCN(c2ccc(C(F)(F)F)cc2Cl)CC1` [Compound 1-282, 1-[2-chloro-4-(trifluoromethyl)phenyl]-N-[2-(dimethylamino)ethyl]-4-[6-(1-methyl-1H-pyrrol-2-yl)pyridin-3-yl]piperidine-4-carboxamide], the Ki is less than 10 nM. `CCOc1c(F)cccc1-c1ccc(C2(C(=O)N[C@@H]3CCN(C)C3)CCN(c3ccc(C(F)(F)F)cc3C#N)CC2)cn1` [Compound 1-72, 1-[2-cyano-4-(trifluoromethyl)phenyl]-4-[6-(2-ethoxy-3-fluorophenyl)pyridin-3-yl]-N-[(3R)-1-methylpyrrolidin-3-yl]piperidine-4-carboxamide]: the Ki was less than 10 nM. Then `CO[C@@H]1CN(C)C[C@@H]1NC(=O)C1(c2ccc(-c3cccn3C)nc2)CCN(c2ccc(C(F)(F)F)cc2C#N)CC1` (racemic) [Compound 1-267, rac-1-[2-cyano-4-(trifluoromethyl)phenyl]-N-[(3S,4R)-4-methoxy-1-methylpyrrolidin-3-yl]-4-[6-(1-methyl-1H-pyrrol-2-yl)pyridin-3-yl]piperidine-4-carboxamide], with less than 10 nM; and `COc1ccccc1-c1ccc(C2(NC(=O)N[C@H]3CCN(C)C3)CCN(c3ccc(C(F)(F)F)cc3C#N)CC2)cn1` [Compound 2-55, 1-{1-[2-cyano-4-(trifluoromethyl)phenyl]-4-[6-(2-methoxyphenyl)pyridin-3-yl]piperidin-4-yl}-3-[(3S)-1-methylpyrrolidin-3-yl]urea], with less than 10 nM. For `CN1CC[C@@H](NC(=O)C2(c3ccc(-c4cccnc4OC(F)F)nc3)CCN(c3ccc(C(F)(F)F)cc3C#N)CC2)C1` [Compound 1-85, 1-[2-cyano-4-(trifluoromethyl)phenyl]-4-[2′-(difluoromethoxy)-[2,3′-bipyridin]-5-yl]-N-[(3R)-1-methylpyrrolidin-3-yl]piperidine-4-carboxamide], the Ki was less than 10 nM.
